Laboratory results taken from patent US20240101584A1, “TARGETED DELIVERY OF 1,2,4,5 TETRAOXANE COMPOUNDS AND THEIR USES” (Westlake University, priority 2021, published 2024).
Read-outs that look alike come from different tables or passages of the source.

Columns and labels:
Hela cells = assay: MTT viability assay, Hela cells; format: cell-based, human; conditions: Homo sapiens, HeLa, 48 h incubation, mean, n = 3, read-out: IC50 against Hela cells
Experimental: (§1) The anticancer activities of the exemplary compounds listed in Example 1 were tested against human cervix Hela cells, mammary breast cancer MDA-MB-231 cells, human hepatocellular HepG2 cells, human colorectal HCT116 cells, mammary ductal T47D cells, non-cancerous NIH3T3 cells, dog's kidney MDCK cells, and mouse brain bEnd.3 cells, respectively.

MDA-MB-231 cells = assay: MTT viability assay, MDA-MB-231 cells; format: cell-based; conditions: for IC50: Homo sapiens
Experimental: as §1

T47D cells = assay: MTT viability assay, T47D cells; format: cell-based; conditions: for IC50: Homo sapiens, T47D
Experimental: as §1

MDCK cells = assay: MTT viability assay, MDCK cells; format: cell-based, dog; conditions: Canis lupus familiaris, MDCK, 48 h incubation, mean, n = 3, read-out: IC50 against MDCK cells
Experimental: as §1

NIH3T3 cells = assay: MTT viability assay, non-cancerous NIH3T3 cells; format: cell-based; conditions: Mus musculus, NIH3T3
Experimental: as §1

HCT116 cells = assay: MTT viability assay, HCT116 cells; format: cell-based, human; conditions: for IC50: Homo sapiens, HCT-116
Experimental: as §1

[1] = MDA-MB-231, 48 h, MTT, 48 h incubation, mean, n = 3, read-out: IC50 against MDA-MB-231 cells
[2] = MTT, 48 h incubation, mean, n = 3, read-out: IC50 against T47D cells
[3] = MTT, 48 h incubation, mean, n = 3, read-out: IC50 against NIH3T3 cells
[4] = MTT, 48 h incubation, mean, n = 3, read-out: IC50 against HCT116 cells
[5] = Table 12b, read-out: IC50 HCT116
[6] = MDA-MB-231, Table 12b, read-out: IC50 MDA-MB-231
[7] = Table 12b, read-out: IC50 NIH3T3

Structure (SMILES) | IC50 (MDA-MB-231 cells; [1]) [µM] | IC50 (NIH3T3 cells; [3]) [µM] | IC50 (HCT116 cells; [4]) [µM] | further results
CN(CCCNC(=O)OC1CCC2(CC1)OOC1(CCC(C(C)(C)C)CC1)OO2)Cc1ccccc1 (centres unmarked) [Compound 37e, 12-(tert-butyl)-7,8,15,16-tetraoxadispiro[5.2.59.26]hexadecan-3-yl(3-(benzyl(methyl)amino)propyl)carbamate] | 1.7 | 1.9 | – | IC50 (Hela cells): 1.7 µM; IC50 (T47D cells; [2]): 1.2 µM; IC50 (MDCK cells): 19.3 µM
CCCC[P+](CCCC)(CCCC)CCCNC(=O)OC1CCC2(CC1)OOC1(CCC(C(C)(C)C)CC1)OO2.[Br-] (centres unmarked) [Compound 56, tributyl(3-((((12-(tert-butyl)-7,8,15,16-tetraoxadispiro[5.2.59.26]hexadecan-3-yl)oxy)carbonyl)amino)propyl)phosphonium bromide] | – | 11.1 | 2.7 | IC50 (HCT116 cells; [5]): 2.7 ± 0.3 µM; selectivity index (IC50 of NIH3T3 divided by IC50 on HCT116) (HCT116 cells; Table 12b, value in bracket): (>4.1); IC50 (MDA-MB-231 cells; [6]): 0.97 ± 0.1 µM; selectivity index (IC50 of NIH3T3 divided by IC50 on MDA-MB-231) (MDA-MB-231 cells; Table 12b, value in bracket): (>11.4); IC50 (NIH3T3 cells; [7]): 11.1 ± 0.6 µM
C[N+](CCCNC(=O)OC1CCC2(CC1)OOC1(CCCCC1)OO2)(Cc1ccccc1)Cc1ccccc1 [Compound 59a, 3-((((7,8,15,16-tetraoxadispiro[5.2.59.26]hexadecan-3-yl)oxy)carbonyl)amino)-N,N-dibenzyl-N-methylpropan-1-aminium iodide] | 10.4 | – | – | –
O=C(NCCC[P+](c1ccccc1)(c1ccccc1)c1ccccc1)OC1CCC2(CC1)OOC1(CCCCC1)OO2 [Compound 59b, (3-((((7,8,15,16-tetraoxadispiro[5.2.59.26]hexadecan-3-yl)oxy)carbonyl)amino)propyl)triphenylphosphonium bromide] | 1.9 | – | – | –
C#CCCN(CCC[P+](c1ccccc1)(c1ccccc1)c1ccccc1)C(=O)OC1CCC2(CC1)OOC1(CCC(C(C)(C)C)CC1)OO2 (centres unmarked) [Compound alk-R-37b, (3-(but-3-yn-1-yl(((12-(tert-butyl)-7,8,15,16-tetraoxadispiro[5.2.59.26]hexadecan-3-yl)oxy)carbonyl)amino)propyl)triphenylphosphonium bromide] | 2.3 | 9.7 | – | –
C[n+]1ccc(CNC(=O)OC2CCC3(CC2)OOC2(CCC(C(C)(C)C)CC2)OO3)cc1 (centres unmarked) [Compound 50, 4-(((((12-(tert-butyl)-7,8,15,16-tetraoxadispiro[5.2.59.26]hexadecan-3-yl)oxy)carbonyl)amino)methyl)-1-methylpyridin-1-ium iodide] | 19.2 | 44.9 | > 25 | –
C#CCCNC(=O)OCC(C)(C)C1CCC2(CC1)OOC1(CCC(OC(=O)NCCC[P+](c3ccccc3)(c3ccccc3)c3ccccc3)CC1)OO2 [Compound alk-L-37b, (3-((((12-(1-((but-3-yn-1-ylcarbamoyl)oxy)-2-methylpropan-2-yl)-7,8,15,16-tetraoxadispiro[5.2.59.26]hexadecan-3-yl)oxy)carbonyl)amino)propyl)triphenylphosphonium bromide] | 2.1 | 12.9 | – | –
CC(=O)OC[C@H]1O[C@@H](OCCCCNC(=O)OC2CCC3(CC2)OOC2(CCC(C(C)(C)C)CC2)OO3)[C@H](OC(C)=O)[C@@H](OC(C)=O)[C@@H]1OC(C)=O (stereo partly drawn) [Compound 37h, (2R,3R,4S,5R,6R)-2-(acetoxymethyl)-6-(4-((((12-(tert-butyl)-7,8,15,16-tetraoxadispiro[5.2.59.26]hexadecan-3-yl)oxy)carbonyl)amino)butoxy)tetrahydro-2H-pyran-3,4,5-triyl triacetate] | – | – | – | IC50 (HCT116 cells; Table 13, experimental data, MTT, 48 hrs, n = 3, read-out: IC50 HCT116): 0.6 ± 0.3 µM; selectivity index (IC50 of NIH3T3 divided by IC50 on HCT116) (HCT116 cells; Table 13, value in bracket): (>7); IC50 (MDA-MB-231 cells; MDA-MB-231, 48 h, Table 13, experimental data, MTT, 48 hrs, n = 3, read-out: IC50 MDA-MB-231): 0.4 ± 0.05 µM; selectivity index (IC50 of NIH3T3 divided by IC50 on MDA-MB-231) (MDA-MB-231 cells; Table 13, value in bracket): (>11); IC50 (T47D cells; Table 13, experimental data, MTT, 48 hrs, n = 3, read-out: IC50 T47D): 0.6 ± 0.1 µM; selectivity index (IC50 of NIH3T3 divided by IC50 on T47D) (T47D cells; Table 13, value in bracket): (>7); IC50 (NIH3T3 cells; Table 13, experimental data, MTT, 48 hrs, n = 3, read-out: IC50 NIH3T3): 4.6 ± 1.9 µM
CC1=CC(=O)C(C(C)(C)CC(=O)N2CCN(C(=O)OC3CCC4(CC3)OOC3(CCC(C(C)(C)C)CC3)OO4)CC2)=C(C)C1=O (centres unmarked) [Compound 37g, 12-(tert-butyl)-7,8,15,16-tetraoxadispiro[5.2.59.26]hexadecan-3-yl 4-(3-(2,4-dimethyl-3,6-dioxocyclohexa-1,4-dien-1-yl)-3-methylbutanoyl)piperazine-1-carboxylate] | 11 | 26.6 | – | IC50 (Hela cells): 11.5 µM; IC50 (MDA-MB-231 cells; [6]): 11 ± 0.9 µM; selectivity index (IC50 of NIH3T3 divided by IC50 on MDA-MB-231) (MDA-MB-231 cells; Table 12b, value in bracket): (>2.4); IC50 (T47D cells; [2]): 3.1 µM; IC50 (T47D cells; Table 12b, read-out: IC50 T47D): 3.1 ± 0.7 µM; selectivity index (IC50 of NIH3T3 divided by IC50 on T47D) (T47D cells; Table 12b, value in bracket): (>8.5); IC50 (MDCK cells): 22.3 µM; IC50 (NIH3T3 cells; [7]): 26.6 ± 2.6 µM
C#CCCNC(=O)OCC(C)(C)C1CCC2(CC1)OOC1(CCC(OC(=O)NCCC[N+](C)(Cc3ccccc3)Cc3ccccc3)CC1)OO2 [Compound alk-L-48, N,N-dibenzyl-3-((((12-(1-((but-3-yn-1-ylcarbamoyl)oxy)-2-methylpropan-2-yl)-7,8,15,16-tetraoxadispiro[5.2.59.26]hexadecan-3-yl)oxy)carbonyl)amino)-N-methylpro pan-1-aminium iodide] | 8.8 | 18.2 | – | –
CC(C)(C)C1CCC2(CC1)OOC1(CCC(OC(=O)NCCC[N+](C)(C)Cc3ccccc3)CC1)OO2 (centres unmarked) [Compound 54, N-benzyl-3-((((12-(tert-butyl)-7,8,15,16-tetraoxadispiro[5.2.59.26]hexadecan-3-yl)oxy)carbonyl)amino)-N,N-dimethylpropan-1-aminium iodide] | 14.7 | > 50 | 26.2 | –
C#CCCNC(=O)OCC(C)(C)C1CCC2(CC1)OOC1(CCC(O)CC1)OO2 [Compound alk-L-37, 2-(12-hydroxy-7,8,15,16-tetraoxadispiro[5.2.59.26]hexadecan-3-yl)-2-methylpropyl but-3-yn-1-ylcarbamate] | 24.5 | – | – | –
CCCC[N+](C)(CCCC)CCCNC(=O)OC1CCC2(CC1)OOC1(CCC(C(C)(C)C)CC1)OO2.[I-] (centres unmarked) [Compound 53, N-butyl-N-(3-((((12-(tert-butyl)-7,8,15,16-tetraoxadispiro[5.2.59.26]hexadecan-3-yl)oxy)carbonyl)amino)propyl)-N-methylbutan-1-aminium iodide] | < 4 | 33.7 | 6.7 | IC50 (HCT116 cells; [5]): 6.7 ± 1.4 µM; selectivity index (IC50 of NIH3T3 divided by IC50 on HCT116) (HCT116 cells; Table 12b, value in bracket): (>5); IC50 (MDA-MB-231 cells; [6]): 3.7 ± 0.4 µM; selectivity index (IC50 of NIH3T3 divided by IC50 on MDA-MB-231) (MDA-MB-231 cells; Table 12b, value in bracket): (>9.1); IC50 (NIH3T3 cells; [7]): 33.7 ± 3.4 µM
OC1CCC2(CC1)OOC1(CCCCC1)OO2 [Compound 59, 7,8,15,16-tetraoxadispiro[5.2.59.26]hexadecan-3-ol] | > 50 | – | – | –
CC(C)(C)C1CCC2(CC1)OOC1(CCC(OC(=O)N3CC[N+](C)(C)CC3)CC1)OO2 (centres unmarked) [Compound 51, 4-(((12-(tert-butyl)-7,8,15,16-tetraoxadispiro[5.2.59.26]hexadecan-3-yl)oxy)carbonyl)-1,1-dimethylpiperazin-1-ium iodide] | 26.1 | > 25 | > 50 | –
CC(C)(C)C1CCC2(CC1)OOC1(CCC(OC(=O)NCCC[N+](Cc3ccccc3)(Cc3ccccc3)Cc3ccccc3)CC1)OO2 (centres unmarked) [Compound 57, N,N,N-tribenzyl-3-((((12-(tert-butyl)-7,8,15,16-tetraoxadispiro[5.2.59.26]hexadecan-3-yl)oxy)carbonyl)amino)propan-1-aminium iodide] | 2.9 | 9.8 | – | –
C#CCCN(CCC[N+](C)(Cc1ccccc1)Cc1ccccc1)C(=O)OC1CCC2(CC1)OOC1(CCC(C(C)(C)C)CC1)OO2.[I-] (centres unmarked) [Compound alk-R-48, N,N-dibenzyl-3-(but-3-yn-1-yl(((12-(tert-butyl)-7,8,15,16-tetraoxadispiro[5.2.59.26]hexadecan-3-yl)oxy)carbonyl)amino)-N-methylpropan-1-aminium iodide] | – | 10.8 | – | IC50 (MDA-MB-231 cells; [6]): 0.8 ± 0.2 µM; selectivity index (IC50 of NIH3T3 divided by IC50 on MDA-MB-231) (MDA-MB-231 cells; Table 12b, value in bracket): (>13); IC50 (NIH3T3 cells; [7]): 10.8 ± 3.7 µM
CC(C)(C)C1CCC2(CC1)OOC1(CCC(OC(=O)NCCC[N+](C)(C)C)CC1)OO2 (centres unmarked) [Compound 49, 3-((((12-(tert-butyl)-7,8,15,16-tetraoxadispiro[5.2.59.26]hexadecan-3-yl)oxy)carbonyl)amino)-N,N,N-trimethylpropan-1-aminium iodide] | 31.5 | > 50 | > 50 | –
